Measurements from patent US20090136977A1, “NOVEL TARGETS FOR ALZHEIMER'S DISEASE” (priority 2007, published 2009).

Assays:
[1] = system: ATase1 mRNA; test: Real-time quantitative PCR of ATase1 mRNA after ceramide treatment; type: cell-based, human; conditions: H4 and SH-SY5Y cells; C6-ceramide 10 μM; seen as early as 4 hours, still evident after 4 days
Description: (§1) Chinese Hamster Ovary (CHO) cells were grown in DMEM (Gibco BRL) supplemented with 10% fetal bovine serum (FBS) and penicillin/streptomycin (Mediatech, Inc., Herndon, Va.) as described before (Puglielli et al., 2001, Nat. Cell Biol. 3: 905-912; Puglielli et al., 2003, J. Biol. Chem. 278: 19777-19783). Cells were maintained in a humidified atmosphere with 5% CO2. For ceramide treatment, C6-ceramide (simply called “ceramide”) was administered in the absence of serum and at the final concentration of 10 μM; treatment was started when cells were ˜80% confluent and carried out for the time specified. […]
(§2) RNA quantification was performed by real-time PCR in an ABI PRISM® 7000 Sequence Detection System using SYBR® Green PCR Master Mix (Applied Biosystems). […] Delta-delta Ct values were normalized with those obtained from the amplification of GAPDH and were expressed as fold-change over control. […]
(§3) The 4-hour treatment was performed in the presence of 0.5% fetal bovine serum whereas the 4-days treatment was performed in the presence of 10% fetal bovine serum, as previously described (Puglielli et al., 2003, J. Biol. Chem. 278: 19777-19783; Costantini et al., 2007, Biochem. J. 407: 383-395)). Results are expressed as fold ±S.D. of control (no treatment). […] Results are expressed as fold ±S.D. of age-matched controls.

[2] = system: ATase2 mRNA; test: Real-time quantitative PCR of ATase2 mRNA after ceramide treatment; type: cell-based, human; conditions: H4 and SH-SY5Y cells; C6-ceramide 10 μM; seen as early as 4 hours, still evident after 4 days
Description: as §1, §2, §3

[3] = system: BACE1; conditions: different cell lines; Costantini et al., 2005; cited from earlier work

CCCCCCCCCCCCC/C=C/[C@@H](O)[C@H](CO)NC(=O)CCCCC [ceramide, C6-ceramide]
mRNA levels of ATase1 (transcription) [1]: marked activation of transcription | mRNA levels of ATase2 (transcription) [2]: marked activation of transcription | acetylation and stabilization of BACE1 [3]: increased acetylation and stabilization of BACE1
